In patent US5632988A, “Polypeptide inhibitors of gamma interferon” (Schering Corporation, priority 1992, dated 1997):
Ends that are not written are not given here.

Experiments:
[1] = target: T1, gamma interferon receptors on Daudi cells (Homo sapiens, UniProt P15260); assay: Inhibition of the binding of 125I-recombinant human gamma interferon to Daudi cells (radioligand-receptor assay); conditions: for inhibition of the binding of the labeled interferon (in words; type of inhibition): FIGS. 1-4; for Ki: specific binding of 125I-recombinant human gamma interferon to Daudi cells, 2 hours at 4° C., Cheng et al. method
T1 construct: host or cells: Daudi cells (human B lymphoblast, Burkitt lymphoma)
T1 sequence (P15260 18-489): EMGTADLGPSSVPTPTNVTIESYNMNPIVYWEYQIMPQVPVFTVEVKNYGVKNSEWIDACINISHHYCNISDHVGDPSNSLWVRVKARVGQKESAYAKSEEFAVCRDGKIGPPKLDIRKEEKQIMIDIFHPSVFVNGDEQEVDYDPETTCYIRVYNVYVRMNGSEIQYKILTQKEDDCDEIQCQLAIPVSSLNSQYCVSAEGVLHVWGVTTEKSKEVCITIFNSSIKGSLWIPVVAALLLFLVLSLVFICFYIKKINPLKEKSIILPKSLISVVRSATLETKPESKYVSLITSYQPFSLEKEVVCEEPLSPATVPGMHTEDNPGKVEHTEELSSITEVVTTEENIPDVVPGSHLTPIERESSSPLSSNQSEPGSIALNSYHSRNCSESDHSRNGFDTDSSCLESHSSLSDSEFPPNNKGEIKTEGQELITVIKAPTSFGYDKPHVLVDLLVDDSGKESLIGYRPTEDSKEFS
Method: The receptor assay employed a standard mixture of 6×10^5 Daudi cells in 1 ml of binding medium (RPMI 1640 medium, 10% fetal bovine serum, 0.02% sodium azide) containing 200,000 cpm of the labeled interferon. Controls additionally contained 1 μg of unlabeled interferon to determine nonspecific binding. Assays were carried out by adding 0.1 ml aliquots of binding medium with or without varying amounts of a potentially inhibitory polypeptide or protein to the standard mixtures, and incubating the combined mixtures for 2 hours at 4° C.
Following the incubation, the cells were pelleted by centrifugation at 13,000× g for 30 seconds at 4° C, and the supernatants were discarded. The cells were resuspended in 0.2 ml of fresh binding medium without labeled interferon at 4° C., after which the cells were centrifuged at 13,000× g for 2 minutes through a layer of dibutyl phthalate and dioctyl phthalate [0.2 ml of a 1:1 (vol/vol) mixture] to remove residual labeled interferon that was not specifically bound. Inhibition constants (Ki) were calculated according to the method of Cheng et al. [Biochem. Pharmacol. 22:3099 (1973)], in which [formula] where [L] is the ligand concentration and IC50 is the concentration of inhibitor required to decrease binding by 50%.

[2] = tested on: antiviral effects of recombinant human gamma interferon D; assay: Inhibition of antiviral effects of recombinant human gamma interferon D on human diploid foreskin cells challenged with encephalomyocarditis virus (CPE scoring); assay type: cell-based
Method: Control Medium A, various dilutions in Medium A of recombinant human gamma Interferon D in the presence of a fixed concentration of polypeptide No. I, or various dilutions of Medium A of polypeptide No. III in the presence of a fixed concentration of the interferon were pipetted in 0.1 ml total volumes into the wells of 96-well flat bottom microtiter plates.
Aliquots of a suspension of human diploid foreskin cells (0.1 ml, 3.5×10^5 cells/ml) in Medium A were pipetted into the wells of the microtiter plates, and the plates were incubated for 4 hours in a 37° C., 5% CO2 incubator. […]
A 0.025-0.05 aliquot of a solution of crystal violet stain (Sigma Chemical Co., St. Louis, Mo.; 0.485% in an aqueous solution containing 3.2% formaldehyde and 32.3% 95% ethanol) was added to each well, and the plates were allowed to stand for 30 minutes for color development. The stain solution was removed and the wells were washed at least three times with distilled water, after which the plates were scored for CPE with the aid of a fluorescent light viewer.
CPE was graded semi-quantitatively on a scale of 0 to 4, with grade O CPE corresponding to a complete absence of cell lysis as measured by cell staining with crystal violet and grade 4 CPE corresponding to total cell lysis and lack of staining.

[3] = tested on: murine encephalomyocarditis virus; assay: Antiviral activity assay, human diploid foreskin cells infected with murine encephalomyocarditis virus (Rubinstein et al.); assay type: cell-based
Text: It also is a potent inducer of the maturational differentiation of pro-monocytes to premacrophages. […] 37:755 (1981)]. […] 132:240 (1984)].

In the case of “AKKLSKDRMKKYMARRKWQKTGHAV [Polypeptide I]”, the “Kd of labeled interferon in the presence of polypeptide (Scatchard analysis)” value ([1]; 5 μM polypeptide, Daudi cells) is reported as “marked increase”.

For poly(D-lysine), the “inhibition of the binding of the labeled interferon (in words; type of inhibition)” value ([1]; Daudi cells) was “strong competitive inhibitors” and the Ki [1] was 190 nM.

With poly(L-glutamic acid) the Ki [1] was 290 nM.

In the case of poly(L-lysine), the “inhibition of the binding of the labeled interferon (in words; type of inhibition)” value ([1]; Daudi cells) is reported as “strong competitive inhibitors” and the Ki [1] is reported as 11000 nM.

Work on protamine sulfate yielded a Ki [1] of 1100 nM.

B1: Recombinant human gamma interferon D: recombinant human gamma interferon D prepared from transformed E. coli, stimulus in antiviral and HLA-DR assays (protein, UniProt P01579 24-161, looked up)
Interferon gamma: QDPYVKEAENLKKYFNAGHSDVADNGTLFLGILKNWKEESDRKIMQSQIVSFYFKLFKNFKDDQSIQKSVETIKEDMNVKFFNSNKKKRDDFEKLTNYSVTDLNVQRKAIHELIQVMAELSPAAKTGKRKRSQMLFRG
modifications: E. coli recombinant
notes: recombinant human gamma interferon D prepared from transformed E. coli, stimulus in antiviral and HLA-DR assays
With B1 the CPE grade ([2]; interferon alone, 30 pM, scale 0 to 4) was 2, the “cell protection / CPE” value ([2]; interferon alone, 1,200 pM) was “complete cell protection” and the antiviral specific activity [3] was “about 4×10^6 units/mg”.
